Assays:
[1] = Naproxen aldehyde solubility in acetone (visual cloud point / clear point); assay type: physicochemical
Text: Solubility data for solids in acetone solvent were obtained by visually obtaining a "cloud" point for a solution of known composition by slowly cooling the solution. After obtaining a "cloud" point the solution was slowly heated until a "dear" point was observed. The "clear" point represents the saturation temperature of the solution and the "cloud" point the temperature at which massive spontaneous nucleation occurs.
Naproxen aldehydes [i.e., R- and S-2-(6-methoxy-2-naphthyl)propionaldehyde]are very soluble in acetone.

[2] = background, in words; cited from earlier work

Row | Structure (SMILES) | solubility in acetone ([1]; in words) | temperature dependence of solubility ([1]; in words) | Cloud Point ([1]; solids 22.0 wt %, solids/liquid ratio 0.28, massive spontaneous nucleation temperature) | Clear Point ([1]; solids 22.0 wt %, solids/liquid ratio 0.28, saturation temperature) | Cloud Point ([1]; solids 29.0 wt %, solids/liquid ratio 0.41, massive spontaneous nucleation temperature) | Clear Point ([1]; solids 29.0 wt %, solids/liquid ratio 0.41, saturation temperature) | Cloud Point ([1]; solids 30.0 wt %, solids/liquid ratio 0.43, massive spontaneous nucleation temperature) | Clear Point ([1]; solids 30.0 wt %, solids/liquid ratio 0.43, saturation temperature) | Cloud Point ([1]; solids 35.3 wt %, solids/liquid ratio 0.55, massive spontaneous nucleation temperature) | Clear Point ([1]; solids 35.3 wt %, solids/liquid ratio 0.55, saturation temperature) | Cloud Point ([1]; solids 47.0 wt %, solids/liquid ratio 0.89, massive spontaneous nucleation temperature) | Clear Point ([1]; solids 47.0 wt %, solids/liquid ratio 0.89, saturation temperature) | anti-arthritic activity [2]
1 | COc1ccc2cc(C(C)C=O)ccc2c1 (racemic) [Naproxen Aldehyde, R- and S-2-(6-methoxy-2-naphthyl)propionaldehyde] | very soluble | very sensitive to temperature | -15 °C | 1 °C | -17 °C | 6 °C | -6 °C | 11 °C | -9 °C | 15 °C | 5 °C | 25 °C | –
2 | COc1ccc2cc([C@H](C)C(=O)O)ccc2c1 [S enantiomer, S-2-(6-methoxy-2-naphthyl)propionic acid] | – | – | – | – | – | – | – | – | – | – | – | – | potent anti-arthritic agent

From patent publication US5739385A, “Process for preparing optically active carboxylic acids” (Union Carbide Chemicals & Plastics Technology Corporation, priority 1995, dated 1998)
